Among the data in paper doi:10.1101/2025.03.18.644008v1 (biorxiv, 2025) are EC50 values, retold here.

A word on the EC50: it is the concentration giving half of the maximal effect.

In the test the target is T1, LPA3 receptor (Homo sapiens, UniProt Q9UBY5).
T1 sequence (Q9UBY5 1-353): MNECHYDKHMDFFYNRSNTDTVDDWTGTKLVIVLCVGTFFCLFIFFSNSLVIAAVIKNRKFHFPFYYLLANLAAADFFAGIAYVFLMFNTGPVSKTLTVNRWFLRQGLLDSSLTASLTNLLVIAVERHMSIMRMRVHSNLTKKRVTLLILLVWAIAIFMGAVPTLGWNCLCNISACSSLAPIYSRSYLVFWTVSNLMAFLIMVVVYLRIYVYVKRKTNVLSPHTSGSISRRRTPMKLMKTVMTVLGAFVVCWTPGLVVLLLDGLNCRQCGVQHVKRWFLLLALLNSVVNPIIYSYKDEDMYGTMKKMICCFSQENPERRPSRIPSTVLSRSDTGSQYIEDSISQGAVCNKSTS
Briefly: intracellular calcium, Fura-2 AM, induced HEK […] Flp-In TREx cells. It is filed as cell-based. (In general: Calcium flux is commonly read through the fluorescence of an indicator in the cells.)

Structures are written as SMILES.

Take `CCCCCCCC/C=C\CCCCCCCC(=O)OC[C@@H](COP(O)(O)=S)OC` [OMPT]: the EC50 is around 0.06 µM. As to `Fc1ccc([C@@H]2CCNC[C@H]2COc2ccc3c(c2)OCO3)cc1` [paroxetine], the EC50 is around 30 µM.
